Experimental data published in patent US20100239646A1, “Sublingual methotrexate and methotrexate patches” (priority 2009, published 2010).

Experiments:
[1] = Absorption of oral methotrexate in a group of arthritic patients (Example-1); assay type: in vivo, human; details: oral dosage form
Experimental: If 10 mg of the drug is given by the oral route only 2.0 mg is absorbed. If the optimal therapeutic dosage is tailored based on this low absorption, then the therapeutically effective dose without manifestation of significant toxic effects would be an effective accumulation of 2.0 mg of the drug in the plasma. It is reasonable to assume for antifolates that an increase of 50% of drug level in plasma relative to the accepted safe level would lead to disastrous toxic consequences including severe bone marrow depression. Therefore an increase of bioavailability from 20 to 30 percent in this case would effectively increase drug concentration by 50% in the plasma. The 10 percent increase in Bioavailability may well be envisioned by slight pH changes in the gut of patients who may be taking antacids, or medicine to modulate acid secretions, taking other medications or unknown factors. The present invention addresses this very crucial safety issues and provides a means to stabilize drug concentration in plasma to predictable levels by replacing oral dosage form of methotrexate with the sublingual dosage form, the absorption of which is independent of the biochemical pharmacology of human gut.

[2] = cited from earlier work
[3] = test system: patients with rheumatoid arthritis; experiment: Conventional therapy of rheumatoid arthritis with methotrexate (Rheumatrex); assay type: in vivo, human
From the text: (§1) In order to unravel the mechanism of methotrexate non-responsiveness M. G. Nair investigated the metabolism of methotrexate and its potential deactivation pathways. […] 3; 29-34 (1996)].

[4] = cited from earlier work; remark: listed apart in the source
[5] = oral dosage form; cited from earlier work
[6] = test system: aldehyde oxidase; experiment: Aldehyde oxidase mediated oxidation of methotrexate
From the text: as §1
The aldehyde oxidase mediated oxidation of methotrexate vs. certain metabolically inert antifolates was investigated by M. Gopal Nair. [Med. Chem. Research. 9:176-185, 1999].

[7] = women; sublingual versus oral solid dosage unit; cited from earlier work

SMILES: CN(Cc1cnc2nc(N)nc(N)c2n1)c1ccc(C(=O)N[C@@H](CCC(=O)O)C(=O)O)cc1 [methotrexate]
- absorption [1]: 20%
- solubility [2]: pH dependent
- percentage of patients who were methotrexate non-responders [3]: 40%
- drug related toxicity ([3]; some patients): elevation of liver enzymes
- toxic effects of the incorrect dose ([4]; 60 mg weekly instead of 15 mg weekly, oral tablets, rheumatoid arthritis patient): odynophagia, dysphagia and oesophagitis
- severe unwanted effects ([4]; weekly dose taken in error daily or on several days each week): neutropenia, hepatotoxicity and bone marrow suppression
- theoretical bioavailability [5]: 20-80%

SMILES: CN(Cc1nc2c(N)nc(N)nc2[nH]c1=O)c1ccc(C(=O)N[C@@H](CCC(=O)O)C(=O)O)cc1 [7-hydroxymethotrexate]
- antifolate activity of the oxidation product [6]: inactive

SMILES: C[C@]12CC[C@@H]3c4ccc(O)cc4CC[C@H]3[C@@H]1CC[C@@H]2O [estradiol]
- share of the oral dose needed by the sublingual route to achieve the same bioavailability [7]: 20-25%

SMILES: Nc1nc(=O)c2c([nH]1)NCC(CNc1ccc(C(=O)N[C@@H](CCC(=O)[O-])C(=O)[O-])cc1)N2C=O.[Ca+2] (stereo partly shown) [Calcium folinate]
- time to improvement of odynophagia ([4]; 15 mg orally four times a day after methotrexate overdose): ≤ 24 h
